Patent US20250099433A1, “COMPOSITION AND METHOD FOR TREATMENT OF GRAM NEGATIVE BACTERIAL INFECTION” (The Research Foundation for the State University of New York, priority 2021, published 2025)
≈ marks a conversion by molar mass, not a printed value. Where “and” joins values, the source holds several entries; their conditions need not be identical. Identical values can stand only once.

Columns and labels:
[1] = target: ecLpxC (Escherichia coli (strain K12), UniProt P0A725); assay type: binding; details: residence time on ecLpxC at 25° C., displacement by fluorescent ligand
Method: Compounds were preincubated with ecLpxC and then mixed with a fluorescent LpxC inhibitor PT900.

[2] = system: wild-type E. coli (K12 MG1655); assay: PAE in wild-type E. coli in the presence of sub-MIC azithromycin; assay type: cell-based, Escherichia coli; details: 16xMIC, 37° C.; for PAE (h) (sub-MIC AZ) 16x(0.2): then media with 0.2xMIC azithromycin; for PAE (h) (sub-MIC AZ) 16x(0.4): then media with 0.4xMIC azithromycin
Text: FIG. 6. Post-antibiotic effect in the presence of sub-MIC azithromycin.
The PAE measurements were repeated for wild-type E. coli in the presence of sub-MIC levels of the protein synthesis inhibitor azithromycin.

[3] = system: FabZ*, hyperactive FabZ strain (L85P); assay: microbe, parasite or virus in culture; assay type: cell-based, Escherichia coli
[4] = system: efflux-pump mutant strain (ΔMexABCDXY) (paEP); assay: MIC by microbroth dilution, efflux-pump mutant P. aeruginosa; details: Pseudomonas aeruginosa, read-out: MIC (μM) (paEP)
Text: Bacterial Strains. […] The efflux-pump deficient P. aeruginosa strain (ΔMexABCDXY), N150, was derived from PAO1.
Minimum Inhibitory Concentration (MIC) Measurements.

[5] = system: wild-type E. coli (K-12 MG1655); assay: Post-antibiotic effect (PAE) in wild-type E. coli; assay type: cell-based, Escherichia coli; details: 1:1000 dilution; for PAE (h) 1x, Wild-type: 1xMIC for 1 h; for PAE (h) 4x, Wild-type: 4xMIC for 1 h; for PAE (h) 16x, Wild-type: 16xMIC for 1 h
Text: FIG. 4. Post-antibiotic effect of the ecLpxC inhibitors on wild-type and FabZ* E. coli. […] PAE data for wild-type E. coli are in panels (a) PT805, (c) PT810 and (e) CHIR-090, and for FabZ* E. coli in (b) PT805, (d) PT810 and (f) CHIR-090.
PAE data for wild-type E. coli are in panels (a) PT805, (c) PT810 and (e) CHIR-090, and for FabZ* E. coli in (b) PT805, (d) PT810 and (f) CHIR-090.

[6] = system: E. coli strain (K-12, MG1655); assay: MIC by microbroth dilution, wild-type E. coli; assay type: cell-based, Escherichia coli; details: wild-type E. coli K-12 MG1655
[7] = system: wild-type E. coli and FabZ* E. coli; assay: Time kill assays in E. coli; details: 4xMIC (16xMIC in FIG. 3), CaMH media, 37° C.
Method: Each time point was performed in duplicate or triplicate and the entire experiment was performed in triplicate. The data points in the figure are the mean values from the independent measurements and the error bars represent the standard deviation from the mean.
The antimicrobial activity of the compounds was examined. […] The post-antibiotic effect (PAE) of the inhibitors was measured by monitoring the regrowth of bacteria following compound washout. […] Bacterial regrowth was monitored by plating samples as a function of time after wash-out and enumerating CFUs.

[8] = system: P. aeruginosa PAO1; assay: MIC by microbroth dilution, P. aeruginosa PAO1; details: Pseudomonas aeruginosa, PAO1, read-out: MIC (μM) (PAO1)
[9] = target: paLpxC (Pseudomonas aeruginosa (strain ATCC 15692 / DSM 22644 / CIP 104116 / JCM 14847 / LMG 12228 / 1C / PRS 101 / PAO1), UniProt P47205); assay: biochemical; assay type: binding
[10] = system: FabZ* E. coli; assay type: cell-based, Escherichia coli; details: 1:1000 dilution; for PAE (h) 1x, FabZ*: 1xMIC for 1 h; for PAE (h) 4x, FabZ*: 4xMIC for 1 h; for PAE (h) 16x, FabZ*: 16xMIC for 1 h
Text: FIG. 4. Post-antibiotic effect of the ecLpxC inhibitors on wild-type and FabZ* E. coli.
This included use of an E. coli strain (FabZ*) containing a hyperactive mutant of the fatty acid biosynthesis O-hydroxyacyl-ACP enzyme (FabZ), and determination of PAEs for wild-type E. coli in the presence of sub-MIC concentrations of macrolides.

[11] = in vivo; cited from earlier work
[12] = target: LpxC from Aquifex aeolicus (aaLpxC) (Aquifex aeolicus (strain VF5), UniProt O67648); details: cited from earlier work
[13] = target: LpxC from E. coli (Escherichia coli (strain K12), UniProt P0A725); details: cited from earlier work
Chain of LpxC from E. coli (P0A725 whole entry): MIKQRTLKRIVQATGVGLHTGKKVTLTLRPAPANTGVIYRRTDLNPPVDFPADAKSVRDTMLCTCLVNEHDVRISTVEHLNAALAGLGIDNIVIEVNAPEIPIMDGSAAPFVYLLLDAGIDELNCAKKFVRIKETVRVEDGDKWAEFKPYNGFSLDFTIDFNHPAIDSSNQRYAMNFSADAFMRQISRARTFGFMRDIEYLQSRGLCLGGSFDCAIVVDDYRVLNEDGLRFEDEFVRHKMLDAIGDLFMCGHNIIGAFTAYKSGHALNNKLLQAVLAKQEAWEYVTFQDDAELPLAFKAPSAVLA

Chain of paLpxC (P47205 1-299): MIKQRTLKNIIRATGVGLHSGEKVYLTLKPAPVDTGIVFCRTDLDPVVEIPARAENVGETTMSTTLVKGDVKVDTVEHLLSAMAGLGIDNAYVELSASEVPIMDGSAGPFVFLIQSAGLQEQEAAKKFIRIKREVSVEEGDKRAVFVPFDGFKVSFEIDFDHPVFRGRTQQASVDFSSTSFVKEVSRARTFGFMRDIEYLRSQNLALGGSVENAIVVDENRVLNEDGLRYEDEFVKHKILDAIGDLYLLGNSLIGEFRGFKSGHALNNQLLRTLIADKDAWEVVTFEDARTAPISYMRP
Chain of LpxC from Aquifex aeolicus (aaLpxC) (O67648 whole entry): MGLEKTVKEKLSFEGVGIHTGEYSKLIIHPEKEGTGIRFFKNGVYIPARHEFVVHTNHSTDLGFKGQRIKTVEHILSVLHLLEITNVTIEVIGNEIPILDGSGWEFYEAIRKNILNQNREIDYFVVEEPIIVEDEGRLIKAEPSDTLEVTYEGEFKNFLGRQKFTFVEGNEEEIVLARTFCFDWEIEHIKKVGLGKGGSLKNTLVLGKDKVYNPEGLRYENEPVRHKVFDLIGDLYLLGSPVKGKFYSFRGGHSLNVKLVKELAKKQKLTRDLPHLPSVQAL

Row | SMILES | tR [1] [min] | PAE (h) (sub-MIC AZ) 16x(0.2) [2] | PAE (h) (sub-MIC AZ) 16x(0.4) [2] | PAE (h) 1x, Wild-type [5] [h] | PAE (h) 4x, Wild-type [5] [h] | PAE (h) 16x, Wild-type [5] [h] | reduction of the starting log CFU/mL of the bacterial culture [7] | PAE (h) 1x, FabZ* [10] [h] | PAE (h) 4x, FabZ* [10] | PAE (h) 16x, FabZ* [10] [h] | further results
1 | CC(CCn1ccc(-c2ccc(-c3cn(Cc4ccccc4)nn3)cc2)cc1=O)(C(=O)NO)S(C)(=O)=O (racemic) [PT810, 4-(4-(4-(1-Benzyl-1H-1,2,3-triazol-4-yl)phenyl)-2-oxopyridin-1(2H)-yl)-N-hydroxy-2-methyl-2-(methylsulfonyl)butanamide] | 6 ± 3 | 1.9 ± 0.8 | 2.6 ± 0.8 | 0 | 0 | 0 | greater than 3 logs | 0.7 ± 0.2 | 0.76 ± 0.19 h and 0.8 ± 0.2 h | 0.9 ± 0.2 | MIC ([3]; Escherichia coli, read-out: MIC (μM) FabZ*): 0.08 µM (≈ 0.0417 µg/mL); MIC [4]: 0.78 µM (≈ 0.407 µg/mL); MIC ([6]; Escherichia coli): 0.17 µM (≈ 0.0887 µg/mL); MIC [8]: 12.5 µM (≈ 6.52 µg/mL); Ki ([9]; 37° C., fluorescence competition): 0.0106 ± 0.0089 nM; tR (min) Fluorescence assay ([9]; 37° C., tR = 1/koff): 57 min and 57.3 ± 18.4 min; koff ([9]; read-out: Koff (s^−1)): 0.00032 ± 0.0001 s⁻¹; kon ([9]; read-out: Kon (μM^−1s^−1)): 43.8 ± 31.7 µM⁻¹ s⁻¹
2 | CC(C)(N)[C@H](NC(=O)c1ccc(C#CC#C[C@@H]2C[C@H]2CO)cc1)C(=O)NO [ACHN-975] | – | – | – | – | – | – | – | – | – | – | toxicity in clinical trials [11]: dose-limiting cardiovascular toxicity
3 | C[C@@H](O)[C@H](NC(=O)c1ccc(C#Cc2ccc(CN3CCOCC3)cc2)cc1)C(=O)NO [CHIR-090] | 66 ± 30 | 2.8 ± 0.3 | 3.7 ± 0.2 | 0 | 0 | 0 | greater than 3 logs | 0.5 ± 0.1 | 1.34 ± 0.04 h and 1.3 ± 0.3 h | 2.4 ± 0.2 | MIC (μM) FabZ* ([3]; hyperactive FabZ strain (L85P)): 0.010 µM (≈ 0.00437 µg/mL); MIC [6]: 0.62 µM (≈ 0.271 µg/mL); residence time on aaLpxC [12]: > 24 h
4 | CC(O)(C(F)F)C(NC(=O)c1ccc(C#CC#Cc2ccc(N)cc2)cc1)C(=O)NO (stereo not drawn) [LPC-058] | – | – | – | – | – | – | – | – | – | – | residence time on LpxC from E. coli [13]: ~12 h
